{"source": "patent US4569791A", "about": "“Anti-diabetic compounds” (Eli Lilly and Company, priority 1984, dated 1986)", "key": {"[1]": {"test_system": "insulin receptor on isolated fat cells", "test": "Isolated Fat Cell Radioreceptor Assay (displacement of 125I-labeled insulin)", "format": "binding", "conditions": "for Relative Potency: isolated fat cell radioreceptor assay, human proinsulin = 1; for ED50: isolated fat cells, 125I-labeled insulin 1-2×10^-11 M, 15° C., two hours", "procedure": "B. Isolated Fat Cell Radioreceptor Assay\nIsolated fat cells were prepared by a modification [Huber, C. T., Solomon, S. S., and Duckworth, W. C., J. Clin. Invest. […] All incubations were in Krebs-Ringer-Hepes (KRH) buffer, pH 7.4, with 4% bovine serum albumin (BSA) in a total volume of 2 ml. […] At selected times, triplicate 300 μl aliquots were removed and added to microfuge tubes containing 100 μl dinonyl phthalate [see Gliemann, J., Osterlind, K., Vinten, J., and Gammeltoft, S., Biochem. Biophys. Acta. […] After centrifugation for one minute in a microfuge, the tubes were cut through the oil layer, and the cell pellet was counted using a gamma counter to determine binding."}, "isolated rat adipocytes": {"test_system": "isolated rat adipocytes", "test": "Biological Activity in Isolated Rat Adipocytes (incorporation of 2-3H-glucose in total fat cell lipid)", "format": "cell-based", "conditions": "for Relative Potency: biological activity in rat adipocytes, human proinsulin = 1; for ED50: rat adipocytes, 2-3H-glucose incorporation into lipid, 37° for 1 hr, mean ±SEM", "procedure": "C. Biological Activity in Isolated Rat Adipocytes\nAdipocytes were prepared from epididymal fat pads by a modification (Huber, supra) of the collagenase digestion procedure of Rodbell, supra. Krebs-Ringer-HEPES (KRH) buffer, pH 7.4, containing 4% bovine serum albumin and 0.55 mM glucose was used in all isolation and incubation steps.\nBiological activity was assessed according to the method of Moody, A. J., Stan, M. A., Stan, M., and Glieman, J., Horm. Metab. Res. 6, 12-16 (1974) by monitoring the incorporation of 2-^3 H-glucose in total fat cell lipid. […] Radioactivity was determined in a Searle Isocap 300 liquid scintillation counter at an efficiency of approximately 30%. Blanks were prepared in which the scintillation fluid was added to the vials prior to the addition of cells. The average counts obtained from these vials were subtracted from those observed in all other samples.\nCompetitive binding curves and biological activity dose-response curves were analyzed using the PREFIT and ALLFIT programs [DeLean, A., Munson, P. J., and Rodbard, D., Am. J. Physiol. 235, E97-E102 (1978)] based on a four-parameter logistic model. These analyses indicated the concentration of insulin or proinsulin necessary to produce a half-maximal response, as well as the maximal and minimal values. All values are presented as the mean ±SEM."}, "[2]": {"test_system": "insulin receptor on IM-9 cells", "test": "IM-9 Radioreceptor Assay (displacement of 125I-insulin)", "format": "binding, human", "conditions": "for ED50: IM-9 cells, 125I-insulin 1-2×10^-11 M, 15° C., two hours; for Relative Potency: IM-9 radioreceptor assay, human proinsulin = 1", "procedure": "A. IM-9 Radioreceptor Assay\nIM-9 cells were grown in RPMI media containing 2 mM glutamine, 25 mM HEPES, and 10% fetal bovine serum. […] Incubations were carried out in 1.5 ml microfuge tubes at 15° C. for two hours. Concentrations of stock solutions containing insulin, proinsulin, or compound of this invention used in the binding studies were established by amino acid analysis and by their absorbance at 276 nm. The cells were resuspended during the assay every 30 minutes by inverting the tubes several times. At the end of the incubation, the tubes were centrifuged for one minute in a Beckman Microfuge, the supernant was aspirated, the tips of the tubes containing the cell pellet were excised, and the radioactivity was measured."}}}
{"substance": "(32-33 split)HPI [(32-33 split) HPI]", "values": [{"measurement": "Relative Potency", "setting": "[1]", "value": 5}, {"measurement": "ED50", "setting": "[1]", "value": "5.29 ± 1.8 × 10^-8 M"}, {"measurement": "Relative Potency", "setting": "isolated rat adipocytes", "value": 5}, {"measurement": "ED50", "setting": "isolated rat adipocytes", "value": "2.56 ± 0.2 × 10^-9 M"}, {"measurement": "ED50", "setting": "[2]", "value": "5.92 ± 0.7 × 10^-9 M"}, {"measurement": "Relative Potency", "setting": "[2]", "value": 5}]}
{"substance": "Human Insulin [reference compound]", "values": [{"measurement": "ED50", "setting": "isolated rat adipocytes", "value": "5.32 ± 0.7 × 10^-11 M"}]}
{"substance": "Human Proinsulin [reference compound]", "values": [{"measurement": "Relative Potency", "setting": "[1]", "value": 1}, {"measurement": "ED50", "setting": "[1]", "value": "2.55 ± 0.6 × 10^-7 M"}, {"measurement": "Relative Potency", "setting": "isolated rat adipocytes", "value": 1}, {"measurement": "ED50", "setting": "isolated rat adipocytes", "value": "1.24 ± 0.2 × 10^-8 M"}, {"measurement": "ED50", "setting": "[2]", "value": "2.97 ± 0.2 × 10^-8 M"}, {"measurement": "Relative Potency", "setting": "[2]", "value": 1}]}
{"substance": "des(31,32)HPI [des (31,32) HPI]", "values": [{"measurement": "Relative Potency", "setting": "[1]", "value": 9}, {"measurement": "ED50", "setting": "[1]", "value": "2.85 ± 0.1 × 10^-8 M"}, {"measurement": "Relative Potency", "setting": "isolated rat adipocytes", "value": 5}, {"measurement": "ED50", "setting": "isolated rat adipocytes", "value": "2.68 ± 0.5 × 10^-9 M"}, {"measurement": "ED50", "setting": "[2]", "value": "5.60 ± 0.3 × 10^-9 M"}, {"measurement": "Relative Potency", "setting": "[2]", "value": 5}]}
